The pIC50 is the negative decadic logarithm of the IC50, by convention in mol/L.

pIC50: −log10 of the molar value.

Assay [1] addresses E3 ubiquitin-protein ligase SMURF2 (Homo sapiens, UniProt Q9HAU4). Description: Inhibition of SMURF2 (unknown origin) in presence of E1/E2/Ub mix measured after 45 mins by europium-labeled streptavidin based TR-FRET assay. (TR-FRET usually uses a lanthanide donor and a delayed reading to cut background.)
Assay [2] has as its target E3 ubiquitin-protein ligase SMURF1 (Homo sapiens, UniProt Q9HCE7). Description: Inhibition of SMURF1 (unknown origin) in presence of E1/E2/Ub mix measured after 45 mins by europium-labeled streptavidin based TR-FRET assay.

E3 ubiquitin-protein ligase SMURF2, sequence (Q9HAU4 whole entry): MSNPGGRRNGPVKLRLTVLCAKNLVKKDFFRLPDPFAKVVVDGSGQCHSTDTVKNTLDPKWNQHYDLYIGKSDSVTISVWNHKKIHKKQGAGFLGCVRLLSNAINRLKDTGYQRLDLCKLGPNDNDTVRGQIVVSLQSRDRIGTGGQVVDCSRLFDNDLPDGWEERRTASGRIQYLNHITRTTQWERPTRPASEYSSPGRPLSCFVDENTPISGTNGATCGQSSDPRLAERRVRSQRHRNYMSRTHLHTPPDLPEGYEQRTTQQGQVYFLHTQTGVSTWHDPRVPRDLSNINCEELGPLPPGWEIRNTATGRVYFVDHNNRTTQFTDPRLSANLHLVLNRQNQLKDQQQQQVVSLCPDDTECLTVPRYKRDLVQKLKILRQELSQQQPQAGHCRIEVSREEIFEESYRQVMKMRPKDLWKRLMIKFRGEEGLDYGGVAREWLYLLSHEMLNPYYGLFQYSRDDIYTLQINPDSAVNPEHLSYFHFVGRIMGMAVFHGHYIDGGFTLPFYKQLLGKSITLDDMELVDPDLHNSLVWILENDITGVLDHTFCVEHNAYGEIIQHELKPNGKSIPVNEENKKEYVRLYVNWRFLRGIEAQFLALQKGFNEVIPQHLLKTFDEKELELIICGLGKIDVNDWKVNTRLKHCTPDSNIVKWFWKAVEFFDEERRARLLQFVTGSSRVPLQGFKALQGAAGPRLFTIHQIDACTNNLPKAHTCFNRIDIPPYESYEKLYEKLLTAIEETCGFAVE
E3 ubiquitin-protein ligase SMURF1, sequence (Q9HCE7 whole entry): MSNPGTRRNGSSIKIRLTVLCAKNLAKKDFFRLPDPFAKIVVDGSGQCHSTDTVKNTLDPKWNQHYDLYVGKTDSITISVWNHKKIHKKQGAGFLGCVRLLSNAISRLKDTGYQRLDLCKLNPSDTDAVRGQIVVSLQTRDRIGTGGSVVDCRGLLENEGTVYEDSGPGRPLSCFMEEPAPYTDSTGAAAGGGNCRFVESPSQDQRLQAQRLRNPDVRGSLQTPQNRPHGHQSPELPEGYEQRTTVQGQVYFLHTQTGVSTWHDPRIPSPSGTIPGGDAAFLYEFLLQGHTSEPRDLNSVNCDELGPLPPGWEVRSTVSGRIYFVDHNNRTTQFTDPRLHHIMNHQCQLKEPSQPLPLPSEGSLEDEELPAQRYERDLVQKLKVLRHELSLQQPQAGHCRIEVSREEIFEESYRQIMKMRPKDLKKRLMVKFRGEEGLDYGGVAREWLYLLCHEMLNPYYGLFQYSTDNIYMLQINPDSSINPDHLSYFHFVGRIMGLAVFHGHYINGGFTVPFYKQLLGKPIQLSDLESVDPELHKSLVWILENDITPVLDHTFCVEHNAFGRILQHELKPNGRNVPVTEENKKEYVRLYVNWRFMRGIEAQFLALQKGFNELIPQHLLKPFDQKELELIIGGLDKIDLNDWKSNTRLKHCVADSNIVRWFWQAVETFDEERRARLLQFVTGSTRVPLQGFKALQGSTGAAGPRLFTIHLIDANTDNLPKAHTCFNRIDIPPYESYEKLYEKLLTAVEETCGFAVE

On to `Cc1c(NC(=O)c2noc3c2CCCc2cc(OC(F)(F)F)ccc2-3)c(=O)n(Cc2ccc(F)cc2)n1C`, for which, in assay [1], the pIC50 was 4.70.

Consider `Cc1c(NC(=O)c2noc3c2CCCc2cc(CC(C)C)ccc2-3)c(=O)n(-c2ccccc2Cl)n1C`, for which the negative logarithm of the IC50 (pIC50) is 7.65 in assay [2] and 6.13 in assay [1].

For `COc1ccc2c(c1)CCCc1c(C(=O)Nc3c(C)n(C)n(Cc4ccc(F)cc4)c3=O)noc1-2`, the pIC50 in assay [1] is 4.70.

Consider `Cc1c(NC(=O)c2noc3c2CCCc2cc(OC(F)(F)F)ccc2-3)c(=O)n(Cc2ccccc2F)n1C`, for which the pIC50 in assay [1] is 4.70.

These data come from ChEMBL document CHEMBL4418281, “Carboxamide inhibitors” (2017).
